What all share (assay type): cell-based, Escherichia coli
The test system of assay [1] is E. coli cells expressing MazF. As to the kind of experiment: Antibiotic survival assay (ciprofloxacin), coexpression with MazF. To be noted: 4 μg/mL ciprofloxacin, up to 4 h; toxin induced 1 h before antibiotic. On the procedure:
This experiment was conducted as described above (“bacterial growth assay”) until the induction of the toxin. However, 1 h after mazF induction with 0.5% of L-arabinose, approximately two million cells were removed from each culture and diluted with LB (final volume of 10 mL) supplemented with IPTG, L-arabinose, and antibiotics for plasmid maintenance. Here, an aliquot of 1 mL was withdrawn, which represents time zero (before the implementation of antibiotic stress). Cells were then exposed to 4 μg/mL ciprofloxacin and incubated at 37 °C/215 rpm for 4 h. Aliquots of 1 mL were taken at intervals of 1 h and washed three times with LB medium (5,000 rpm/5 min/4 °C) to remove the antibiotic. After the last wash step, the culture medium was removed, and the cell pellet was resuspended in 100 μL of LB medium. 10-fold serial dilutions were made from this solution using LB medium, and 2 μL of each dilution was spotted on solid LB-agar supplemented with antibiotics for the maintenance of plasmids. Plates were incubated at 37 °C for 24 h and photographed. The experiment was repeated at least three times.

The subject of assay [2] is E. coli cells superexpressing MazF. The assay can be described thus: Oxygen consumption assay, coexpression with MazF. To be noted: cells coexpressing MazF and recombinant SamF; 1 mM IPTG, 1% L-arabinose, 37 °C. On the procedure:
This experiment was conducted as described above (“bacterial growth assay”). However, 90 min after induction of recombinant samF with 1 mM IPTG, an aliquot of 1 mL of a cell suspension containing approximately 2.5 million cells was removed from each culture and placed into the chamber of an Oroboros O2K oxygraph (Bioplast) instrument. After equilibration of the oxygen consumption rate, mazF expression was induced by the addition of 1% of L-arabinose, and the consumption rate and amount of dissolved oxygen was monitored for a period of about 3 h. The experiment was carried out at 37 °C under orbital shaking at 200 rpm and repeated at least three times.

Assay [3] shares this test system. As to the kind of experiment: Resazurin assay (redox state), coexpression with MazF. To be noted: cells coexpressing MazF and recombinant SamF, 1 h MazF expression, 75 μg/mL resazurin. On the procedure:
This experiment was conducted as described above (“bacterial cell growth assay”). However, 1 h after mazF induction with 1% of L-arabinose, approximately 40 millions of cells in 200 μL of LB (with antibiotics, IPTG and L-arabinose) were taken and incubated with 75 μg/mL of resazurin (final concentration). The experiment was performed in a 96-well plate in triplicate. The plate was incubated at 37 °C/70 rpm, and the color development, due to resazurin reduction, was monitored every hour visually and by scanning the dye absorbance between 500–700 nm.

Assay [4] has the same test system. As to the kind of experiment: Glucose uptake assay (2-NBDG, flow cytometry), coexpression with MazF. To be noted: cells coexpressing MazF and recombinant SamF, 400 μM 2-NBDG. The procedure:
This experiment was carried out as described above (“bacterial cell growth assay”). However, 1 h after mazF induction with 1% of L-arabinose, cells were harvested by centrifugation (10 min/4,500 rpm/4 °C). The cell pellet was resuspended in 5 mL of M9 media without glucose or any other carbon source (M9^–glucose). Cells were pelleted again and resuspended in M9^–glucose as above. Ten million cells were removed from this solution in a final volume of 5 mL of M9^–glucose and incubated with 400 μM of the fluorescent glucose analog 2-NDBG (Thermofisher) at 37 °C/300 rpm. Aliquots of 0.5 mL were taken at 1 h intervals for a period of 3 h. To remove the noninternalized 2-NBG dye, cells were centrifuged (10 min/4,500 rpm/4 °C) and the supernatant was removed. After a new wash step with 1 mL of M9^–glucose, the cell pellet was resuspended in 0.5 mL of M9^–glucose. Cells were placed on ice until all samples were collected and then immediately subjected to flow cytometry on a BD FACS Canto II system (BD Biosciences) with an excitation/emission wavelength at 488/530 nm. The percentage of cells labeled with 2-NGDG was calculated relative to the fluorescence of the stainless control with FlowJo software.

Turning to “MSHLFWAQFDEYF [recombinant SamF, recombinantly expressed SamF ([…]) from pET-24a-samF in E. coli]”, the “Survival of cells coexpressing MazF and the peptide under ciprofloxacin (result in words)” value in assay [1] is “almost eradicated after only 1 h”. In addition, in assay [2], the “Oxygen consumption rate after mazF induction” value is on record as 20 pmol/s. In assay [3], the “Time to complete reduction of resazurin” value lay within 3 to 4 h. In addition, the “Percentage of cells labeled with 2-NBDG” value is reported as 64% in assay [4] (first hour), 87% in assay [4] (second hour) and 96% in assay [4] (third hour).

The values above are taken from publication PMC12557383, “Development of a Potent and Functional In Vivo Peptide Competitive Inhibitor for the Toxin MazF” (Journal of Medicinal Chemistry, 2025).
